Data on 38 substances can be found in US20230293644A1, “ANTI-INFLAMMATORY PEPTIDES AND COMPOSITION COMPRISING THE SAME” (Gemvax & KAEL Co., Ltd., priority 2012, published 2023).

This test deals with TNF-α. Put plainly: Screening of TNF-α inhibitory effect, LPS-stimulated PBMC-derived monocytes (Example 2). The conditions noted are these: 4 uM peptide, 2 hrs, LPS 10 ng/ml; for TNF-α inhibiting effect compared to the group treated with LPS and estrogen: estrogen 20 nM. It counts as cell-based, human. As to the method:
PBMC (peripheral blood mononuclear cells) layer was separated from blood samples (50 ml) collected in healthy subjects using Biocoll Separating Solution (Biochrom AG, Berlin, Germany). The collected PBMC were enriched in RPMI 1640 medium containing 20% human serum for 30 mins, and then transferred to 100-mm polystyeren cell culture plate coated with human serum for incubation for 2 hrs at 37° C., 5% CO^2 incubator. Monocytes were detached from the bottom of the plate using cold PBS, and incubated to reach the number of 1 × 10^5 cell/well in 96-well plate with RPMI 1640 medium (supplemented with penicillinstreptomycin; […], human serum; 20%) over night.
ELISA was performed to find out how the peptides of the PEP RIA series influence TNF-α level. PBMC-derived monocytes were incubated to reach the number of 1 × 10^5 cells per well in a 96-well plate and then treated with LPS (lipopolysaccharide; 10 ng/ml, Sigma) for 2 hours. To the monocytes that were washed three times with PBS, OPTI-MEM culture medium was added to induce cell starvation for an hour, 4 µM of the peptide was taken out and incubated for 2 hours. There were three negative control groups. The first group was not treated with anything. The second group that was treated with estrogen (in this experiment, estradiol was used as a kind of estrogen). The third group was treated with LPS (10 ng/ml) or with LPS (10 ng/ml) as well as estrogen (20 nM). PEP1 that was confirmed to have TNF-α inhibiting activity was used as a positive control to measure TNF-α inhibiting activity. After incubation, TNF-α was measured by following the ELISA kit manual (R&D, Minneapolis, MN, USA). The details of quantification method can be found in Experiment 2.2 of Example 1.
Using the method stated above, Peptides with TNF-α inhibiting effect were screened. PBMC-derived monocytes were stimulated with LPS (10 ng/ml), which is endotoxin, for 2 hours and were induced to starve by adding OPTI-MEM for 1 hour. After that, 4 uM of 179 peptides were treated and incubated for 2 hrs. The amount of TNF-α in the cell culture medium was measured using ELISA, and the peptides with TNF-α inhibiting effect were screened by comparing to the negative and positive controls (FIG. 3 to FIG. 23).

With “FIPK (listed as Homo sapiens) [SEQ ID NO: 102]”, the “TNF-α inhibiting effect compared to the control group treated with only LPS” value is given as “showed TNF-α inhibiting effect”; the “TNF-α inhibiting effect compared to the group treated with LPS and estrogen” value is “showed TNF-α inhibiting effect”. Consider “HREARPALLTSRLRFIPKP (listed as Homo sapiens) [SEQ ID NO: 17]”, for which the “TNF-α inhibiting effect compared to the control group treated with only LPS” value is “showed TNF-α inhibiting effect”; the “TNF-α inhibiting effect compared to the group treated with LPS and estrogen” value was “showed TNF-α inhibiting effect”. Regarding “HREARPALLTSRLRFIPKPD (listed as Homo sapiens) [SEQ ID NO: 18]”, the “TNF-α inhibiting effect compared to the control group treated with only LPS” value is on record as “showed TNF-α inhibiting effect”; the “TNF-α inhibiting effect compared to the group treated with LPS and estrogen” value is reported as “showed TNF-α inhibiting effect”. Turning to “HREARPALLTSRLRFIPKPDGLRPI (listed as Homo sapiens) [SEQ ID NO: 63]”, the “TNF-α inhibiting effect compared to the control group treated with only LPS” value is “showed TNF-α inhibiting effect”; the “TNF-α inhibiting effect compared to the group treated with LPS and estrogen” value is on record as “showed TNF-α inhibiting effect”. As for IPK [SEQ ID NO: 103], the “TNF-α inhibiting effect compared to the control group treated with only LPS” value is reported as “showed TNF-α inhibiting effect”; the “TNF-α inhibiting effect compared to the group treated with LPS and estrogen” value was “showed TNF-α inhibiting effect”. For the substance “LLTSR (listed as Homo sapiens) [SEQ ID NO: 150]”, the “TNF-α inhibiting effect compared to the control group treated with only LPS” value is “showed TNF-α inhibiting effect”. Turning to “LLTSRL (listed as Homo sapiens) [SEQ ID NO: 108]”, the “TNF-α inhibiting effect compared to the control group treated with only LPS” value is recorded as “showed TNF-α inhibiting effect”; the “TNF-α inhibiting effect compared to the group treated with LPS and estrogen” value was “showed TNF-α inhibiting effect”. Regarding “LLTSRLR (listed as Homo sapiens) [SEQ ID NO: 149]”, the “TNF-α inhibiting effect compared to the control group treated with only LPS” value was “showed TNF-α inhibiting effect”; the “TNF-α inhibiting effect compared to the group treated with LPS and estrogen” value is given as “showed TNF-α inhibiting effect”.

As for “LLTSRLRF (listed as Homo sapiens) [SEQ ID NO: 148]”, the “TNF-α inhibiting effect compared to the control group treated with only LPS” value is on record as “showed TNF-α inhibiting effect”; the “TNF-α inhibiting effect compared to the group treated with LPS and estrogen” value is listed as “showed TNF-α inhibiting effect”.

For the substance LRF [SEQ ID NO: 176], the “TNF-α inhibiting effect compared to the control group treated with only LPS” value is listed as “showed TNF-α inhibiting effect”. On to “LRFI (listed as Homo sapiens) [SEQ ID NO: 175]”, for which the “TNF-α inhibiting effect compared to the control group treated with only LPS” value was “showed TNF-α inhibiting effect”. With “LRFIP (listed as Homo sapiens) [SEQ ID NO: 174]”, the “TNF-α inhibiting effect compared to the control group treated with only LPS” value was “showed TNF-α inhibiting effect”; the “TNF-α inhibiting effect compared to the group treated with LPS and estrogen” value was “showed TNF-α inhibiting effect”.

On to “LRFIPK (listed as Homo sapiens) [SEQ ID NO: 100]”, for which the “TNF-α inhibiting effect compared to the control group treated with only LPS” value is on record as “showed TNF-α inhibiting effect”; the “TNF-α inhibiting effect compared to the group treated with LPS and estrogen” value is reported as “showed TNF-α inhibiting effect”. Consider “LSEAEVRQHREARPALLTSRLRFIPK (listed as Homo sapiens) [SEQ ID NO: 11]”, for which the “TNF-α inhibiting effect compared to the control group treated with only LPS” value is “showed TNF-α inhibiting effect”; the “TNF-α inhibiting effect compared to the group treated with LPS and estrogen” value is given as “showed TNF-α inhibiting effect”.

With LTS [SEQ ID NO: 158], the “TNF-α inhibiting effect compared to the control group treated with only LPS” value was “showed TNF-α inhibiting effect”.

Turning to “LTSRL (listed as Homo sapiens) [SEQ ID NO: 157]”, the “TNF-α inhibiting effect compared to the control group treated with only LPS” value is “showed TNF-α inhibiting effect”; the “TNF-α inhibiting effect compared to the group treated with LPS and estrogen” value is listed as “showed TNF-α inhibiting effect”. As to “LTSRLR (listed as Homo sapiens) [SEQ ID NO: 156]”, the “TNF-α inhibiting effect compared to the control group treated with only LPS” value was “showed TNF-α inhibiting effect”; the “TNF-α inhibiting effect compared to the group treated with LPS and estrogen” value was “showed TNF-α inhibiting effect”. With “LTSRLRFIPK (listed as Homo sapiens) [SEQ ID NO: 96]”, the “TNF-α inhibiting effect compared to the control group treated with only LPS” value was “showed TNF-α inhibiting effect”; the “TNF-α inhibiting effect compared to the group treated with LPS and estrogen” value is reported as “showed TNF-α inhibiting effect”.

In the case of “PALLTSRLRFI (listed as Homo sapiens) [SEQ ID NO: 131]”, the “TNF-α inhibiting effect compared to the control group treated with only LPS” value is listed as “showed TNF-α inhibiting effect”. For “QHREARPALLTSRLRFIPKP (listed as Homo sapiens) [SEQ ID NO: 20]”, the “TNF-α inhibiting effect compared to the control group treated with only LPS” value was “showed TNF-α inhibiting effect”; the “TNF-α inhibiting effect compared to the group treated with LPS and estrogen” value is “showed TNF-α inhibiting effect”. In the case of “QHREARPALLTSRLRFIPKPD (listed as Homo sapiens) [SEQ ID NO: 21]”, the “TNF-α inhibiting effect compared to the control group treated with only LPS” value was “showed TNF-α inhibiting effect”. On to “QHREARPALLTSRLRFIPKPDGLRPI (listed as Homo sapiens) [SEQ ID NO: 62]”, for which the “TNF-α inhibiting effect compared to the control group treated with only LPS” value is “showed TNF-α inhibiting effect”; the “TNF-α inhibiting effect compared to the group treated with LPS and estrogen” value was “showed TNF-α inhibiting effect”.

Regarding “REARPALLTSRLRFIPKPD (listed as Homo sapiens) [SEQ ID NO: 19]”, the “TNF-α inhibiting effect compared to the control group treated with only LPS” value is “showed TNF-α inhibiting effect”; the “TNF-α inhibiting effect compared to the group treated with LPS and estrogen” value is given as “showed TNF-α inhibiting effect”. “REARPALLTSRLRFIPKPDGLRPI (listed as Homo sapiens) [SEQ ID NO: 64]”: the “TNF-α inhibiting effect compared to the control group treated with only LPS” value was “showed TNF-α inhibiting effect”; the “TNF-α inhibiting effect compared to the group treated with LPS and estrogen” value is on record as “showed TNF-α inhibiting effect”. For “RELSEAEVRQHREARPALLTSRLRFIPK (listed as Homo sapiens) [SEQ ID NO: 13]”, the “TNF-α inhibiting effect compared to the control group treated with only LPS” value was “showed TNF-α inhibiting effect”. Same read-out and setting: the value for RFI [SEQ ID NO: 178] was “showed TNF-α inhibiting effect”. For “RFIP (listed as Homo sapiens) [SEQ ID NO: 177]”, the “TNF-α inhibiting effect compared to the control group treated with only LPS” value is “showed TNF-α inhibiting effect”. As to “RFIPK (listed as Homo sapiens) [SEQ ID NO: 101]”, the “TNF-α inhibiting effect compared to the control group treated with only LPS” value is reported as “showed TNF-α inhibiting effect”; the “TNF-α inhibiting effect compared to the group treated with LPS and estrogen” value is reported as “showed TNF-α inhibiting effect”. As for RLR [SEQ ID NO: 173], the “TNF-α inhibiting effect compared to the control group treated with only LPS” value is given as “showed TNF-α inhibiting effect”; the “TNF-α inhibiting effect compared to the group treated with LPS and estrogen” value is “showed TNF-α inhibiting effect”. Consider “RLRF (listed as Homo sapiens) [SEQ ID NO: 172]”, for which the “TNF-α inhibiting effect compared to the control group treated with only LPS” value was “showed TNF-α inhibiting effect”; the “TNF-α inhibiting effect compared to the group treated with LPS and estrogen” value was “showed TNF-α inhibiting effect”. As to “RLRFIPK (listed as Homo sapiens) [SEQ ID NO: 99]”, the “TNF-α inhibiting effect compared to the control group treated with only LPS” value is “showed TNF-α inhibiting effect”; the “TNF-α inhibiting effect compared to the group treated with LPS and estrogen” value was “showed TNF-α inhibiting effect”.

“RPALLTSR (listed as Homo sapiens) [SEQ ID NO: 124]”: the “TNF-α inhibiting effect compared to the control group treated with only LPS” value is reported as “showed TNF-α inhibiting effect”. On to “RPALLTSRLRFI (listed as Homo sapiens) [SEQ ID NO: 105]”, for which the “TNF-α inhibiting effect compared to the control group treated with only LPS” value is “showed TNF-α inhibiting effect”.

For the substance “RPALLTSRLRFIPK (listed as Homo sapiens) [SEQ ID NO: 92]”, the “TNF-α inhibiting effect compared to the control group treated with only LPS” value is on record as “showed TNF-α inhibiting effect”.

For “RQHREARPALLTSRLRFIPKP (listed as Homo sapiens) [SEQ ID NO: 25]”, the “TNF-α inhibiting effect compared to the control group treated with only LPS” value was “showed TNF-α inhibiting effect”; the “TNF-α inhibiting effect compared to the group treated with LPS and estrogen” value is “showed TNF-α inhibiting effect”. On to “RQHREARPALLTSRLRFIPKPD (listed as Homo sapiens) [SEQ ID NO: 26]”, for which the “TNF-α inhibiting effect compared to the control group treated with only LPS” value was “showed TNF-α inhibiting effect”; the “TNF-α inhibiting effect compared to the group treated with LPS and estrogen” value is on record as “showed TNF-α inhibiting effect”. Take “RQHREARPALLTSRLRFIPKPDG (listed as Homo sapiens) [SEQ ID NO: 27]”: the “TNF-α inhibiting effect compared to the control group treated with only LPS” value was “showed TNF-α inhibiting effect”; the “TNF-α inhibiting effect compared to the group treated with LPS and estrogen” value is “showed TNF-α inhibiting effect”. Regarding “RQHREARPALLTSRLRFIPKPDGL (listed as Homo sapiens) [SEQ ID NO: 28]”, the “TNF-α inhibiting effect compared to the control group treated with only LPS” value is given as “showed TNF-α inhibiting effect”.
